Square brackets hold non-standard residues; d marks the D form. Peptide text beside a SMILES is read from it. * marks the point of attachment. ξ: configuration not given here. MeBmt = C/C=C/C[C@@H](C)[C@@H](O)[C@H](NC)C(=O)O; NMeIle(3ξ) = CCC(C)[C@H](NC)C(=O)O; NMeThr(3ξ) = CN[C@H](C(=O)O)C(C)O; NMePhg = CN[C@H](C(=O)O)c1ccccc1; NMeT = CN[C@H](C(=O)O)[C@@H](C)O; NMeL = CN[C@@H](CC(C)C)C(=O)O; dNMeAbu = CC[C@@H](NC)C(=O)O; NMeV = CN[C@H](C(=O)O)C(C)C; dNMeS = CN[C@H](CO)C(=O)O; dNMeA = CN[C@H](C)C(=O)O; Sar = CNCC(=O)O; tBu = CC(C)(C)*
Target: HCV replicon
Format: cell-based, hepatitis C virus
Details: HCV replicon cells, luciferase activity two days after addition of compound, 50% of control (DMSO only)
Experimental: It is thought that the replication mechanism of the subgenomic HCV RNA in these cell lines is extremely similar to the replication of full length HCV RNA genome in hepatic cells infected with HCV.
The inhibitory activity of the test compounds against the replication of HCV replicon was evaluated by quantified the activity of luciferase, a reporter gene product encoded in the replicon system reported by Yokota et al., EMBO 4: 602-608 (2003). The enzyme assay was carried out according to the technical manual of the Steady-Glo® luciferase assay system (Promega). The replicon assay was carried out with the modified method reported by Lohmann et al., Science 285: 110 (1999). The details are described in the following.
6×10^3 HCV replicon cells in D-MEM medium containing 5% fetal bovine serum were seeded in each well of a 96-well microtiter plate (Corning Inc.). After the cells were incubated at 37° C. for 16 hours in 5% CO2, the test compound was added.
After cultivation for two more days, the culture medium was removed and 25 μl of Glo Lysis buffer was added to each well and incubated for 5 minutes. Allowing lysis to occur, 25 μl of Steady-Glo® assay reagent was added to each well. After incubation for 5 minutes, the luminescence was measured with a luminometer, Mithras LB940 (BERTHOLD TECHNOLOGIES GmbH & Co.KG) following the manufacturer's instructions.
The luciferase activities in replicon cells treated at each concentrations of the compound were employed for the calculation of EC50 value of the each compound, which gave the compound concentration indicating 50% enzyme activity level to the control (no drug group, containing only DMSO).

Row | Molecule | HCV replicon replication inhibitory activity: EC50
1 | C/C=C/C[C@@H](C)[C@@H](O)[C@H]1C(=O)N[C@@H]([C@@H](C)O)C(=O)N(C)[C@H](COC)C(=O)N(C)[C@@H]([C@@H](C)OC)C(=O)N[C@@H](CC(C)C)C(=O)N(C)[C@@H](CC(C)C)C(=O)N[C@@H](C)C(=O)N[C@H](C)C(=O)N(C)[C@@H](CC(C)C)C(=O)N[C@@H](CC(C)C)C(=O)N(C)[C@@H](C(C)C)C(=O)N1C [Example 9] (cyclo(A[dA][NMeL]L[NMeV][MeBmt]T[dNMeS](Me)[NMeT](Me)L[NMeL])) | <0.5 µg/mL
2 | C/C=C/C[C@@H](C)[C@@H](O)[C@H]1C(=O)N[C@@H]([C@@H](C)O)C(=O)N(C)[C@H](C)C(=O)N(C)[C@@H](C(C)O)C(=O)N[C@@H](CC(C)C)C(=O)N(C)[C@@H](CC(C)C)C(=O)N[C@@H](C)C(=O)N[C@H](C)C(=O)N(C)[C@@H](CC(C)C)C(=O)N[C@@H](CC(C)C)C(=O)N(C)[C@@H](C(C)C)C(=O)N1C (stereo partly drawn) [Example 12, (3R,6S,9S,12S,15S,18S,21R,24S,27S,30S,33S)-6-[(1R)-1-hydroxyethyl]-33-(1-hydroxyethyl)-9-[(1R,2R,4E)-1-hydroxy-2-methyl-4-hexen-1-yl]-15,18,27,30-tetraisobutyl-12-isopropyl-1,3,4,10,13,19,21,24,28-nonamethyl-1,4,7,10,13,16,19,22,25,28,31-undecaazacyclotritriacontane-2,5,8,11,14,17,20,23,26,29,32-undecone] (cyclo(A[dA][NMeL]L[NMeV][MeBmt]T[dNMeA][NMeThr(3ξ)]L[NMeL])) | <0.5 µg/mL
3 | C/C=C/C[C@@H](C)[C@@H](O)[C@H]1C(=O)N[C@@H]([C@@H](C)O)C(=O)N(C)[C@H](C)C(=O)N(C)[C@@H](C(C)CC)C(=O)N[C@@H](CC(C)C)C(=O)N(C)[C@@H](CC(C)C)C(=O)N[C@@H](C)C(=O)N[C@H](C)C(=O)N(C)[C@@H](CC(C)C)C(=O)N[C@@H](CC(C)C)C(=O)N(C)[C@@H](C(C)C)C(=O)N1C (stereo partly drawn) [Example 14, (3R,6S,9S,12S,15S,18S,21R,24S,27S,30S,33S)-33-sec-butyl-6-[(1R)-1-hydroxyethyl]-9-[(1R,2R,4E)-1-hydroxy-2-methyl-4-hexen-1-yl]-15,18,27,30-tetraisobutyl-12-isopropyl-1,3,4,10,13,19,21,24,28-nonamethyl-1,4,7,10,13,16,19,22,25,28,31-undecaazacyclotritriacontane-2,5,8,11,14,17,20,23,26,29,32-undecone] (cyclo(A[dA][NMeL]L[NMeV][MeBmt]T[dNMeA][NMeIle(3ξ)]L[NMeL])) | <0.5 µg/mL
4 | C/C=C/C[C@@H](C)[C@@H](O)[C@H]1C(=O)N[C@@H]([C@@H](C)O)C(=O)N(C)[C@H](C)C(=O)N(C)[C@@H](c2ccccc2)C(=O)N[C@@H](CC(C)C)C(=O)N(C)[C@@H](CC(C)C)C(=O)N[C@@H](C)C(=O)N[C@H](C)C(=O)N(C)[C@@H](CC(C)C)C(=O)N[C@@H](CC(C)C)C(=O)N(C)[C@@H](C(C)C)C(=O)N1C [Example 15] (cyclo(A[dA][NMeL]L[NMeV][MeBmt]T[dNMeA][NMePhg]L[NMeL])) | <0.5 µg/mL
5 | C/C=C/C[C@@H](C)[C@@H](O)[C@H]1C(=O)N[C@@H]([C@@H](C)O)C(=O)N(C)[C@H](CC)C(=O)N(C)[C@@H]([C@@H](C)OC)C(=O)N[C@@H](CC(C)C)C(=O)N(C)[C@@H](CC(C)C)C(=O)N[C@@H](C)C(=O)N[C@H](C)C(=O)N(C)[C@@H](CC(C)C)C(=O)N[C@@H](CC(C)C)C(=O)N(C)[C@@H](C(C)C)C(=O)N1C [Example 16] (cyclo(A[dA][NMeL]L[NMeV][MeBmt]T[dNMeAbu][NMeT](Me)L[NMeL])) | <0.5 µg/mL
6 | C/C=C/C[C@@H](C)[C@@H](O)[C@H]1C(=O)N[C@@H]([C@@H](C)O)C(=O)N(C)[C@H](C)C(=O)N(C)[C@@H](C(C)OC(C)(C)C)C(=O)N[C@@H](CC(C)C)C(=O)N(C)[C@@H](CC(C)C)C(=O)N[C@@H](C)C(=O)N[C@H](C)C(=O)N(C)[C@@H](CC(C)C)C(=O)N[C@@H](CC(C)C)C(=O)N(C)[C@@H](C(C)C)C(=O)N1C (stereo partly drawn) [Example 25, (3R,6S,9S,12S,15S,18S,21R,24S,27S,30S,33S)-33-(1-tert-butoxyethyl)-6-[(1R)-1-hydroxyethyl]-9-[(1R,2R,4E)-1-hydroxy-2-methyl-4-hexen-1-yl]-15,18,27,30-tetraisobutyl-12-isopropyl-1,3,4,10,13,19,21,24,28-nonamethyl-1,4,7,10,13,16,19,22,25,28,31-undecaazacyclotritriacontane-2,5,8,11,14,17,20,23,26,29,32-undecone] (cyclo(A[dA][NMeL]L[NMeV][MeBmt]T[dNMeA][NMeThr(3ξ)](tBu)L[NMeL])) | <0.5 µg/mL
7 | C/C=C/C[C@@H](C)[C@@H](O)[C@H]1C(=O)N[C@@H]([C@@H](C)O)C(=O)N(C)[C@H](C)C(=O)N(C)[C@@H]([C@@H](C)OC)C(=O)N[C@@H](CC(C)C)C(=O)N(C)[C@@H](CC(C)C)C(=O)N[C@@H](C)C(=O)N[C@H](C)C(=O)N(C)[C@@H](CC(C)C)C(=O)N[C@@H](CC(C)C)C(=O)N(C)[C@@H](C(C)C)C(=O)N1C [Example 32] (cyclo(A[dA][NMeL]L[NMeV][MeBmt]T[dNMeA][NMeT](Me)L[NMeL])) | <0.5 µg/mL
8 | C/C=C/C[C@@H](C)[C@@H](O)[C@H]1C(=O)N[C@@H]([C@@H](C)O)C(=O)N(C)CC(=O)N(C)[C@@H](C(C)OC(C)(C)C)C(=O)N[C@@H](CC(C)C)C(=O)N(C)[C@@H](CC(C)C)C(=O)N[C@@H](C)C(=O)N[C@H](C)C(=O)N(C)[C@@H](CC(C)C)C(=O)N[C@@H](CC(C)C)C(=O)N(C)[C@@H](C(C)C)C(=O)N1C (stereo partly drawn) [Example 52, (3S,6S,9S,12R,15S,18S,21S,24S,30S,33S)-24-(1-tert-butoxyethyl)-30-[(1R)-1-hydroxyethyl]-33-[(1R,2R,4E)-1-hydroxy-2-methyl-4-hexen-1-yl]-6,9,18,21-tetraisobutyl-3-isopropyl-1,4,10,12,15,19,25,28-octamethyl-1,4,7,10,13,16,19,22,25,28,31-undecaazacyclotritriacontane-2,5,8,11,14,17,20,23,26,29,32-undecone] (cyclo(A[dA][NMeL]L[NMeV][MeBmt]T[Sar][NMeThr(3ξ)](tBu)L[NMeL])) | <0.5 µg/mL

System: Human Immunodeficiency Virus Type 1 (HIV-1)
Details: M. Thali et al., Nature 372, 363-365 (1994); cited from earlier work

Row | Molecule | anti-HIV activity
9 | Cyclosporin A | anti-HIV activity

System: HCV
Details: K. Inoue et al., 6th International Symposium on Hepatitis C and Related Virus (2000); cited from earlier work

Row | Molecule | anti-HCV activity
10 | Cyclosporin A | anti-HCV activity

Source: patent US8252895B2, “Cyclic peptide compounds” (Astellas Pharma Inc., priority 2005, dated 2012)
